One data set concerns the target hERG (Homo sapiens, UniProt Q12809).
Another data set has as its system HCoV-229E. The data set is described as follows: microbe, parasite or virus in culture. The data set is classed as cell-based.
Assay in data set [1]: not given
The source holds these as a separate data set.

The next data set is described as follows: in vitro. To be noted: human.
The conditions of data set [2]: human.
Data set [3] relates to SARS-CoV-2. The data set is described as follows: Antiviral activity in A549-ACE2 cells, high content imaging of virus N protein. To be noted: Severe acute respiratory syndrome coronavirus 2, A549-ACE2. The data set is classed as cell-based, USA-WA1/2020 SARS-CoV-2.
Data set [4] concerns SARS-CoV-2. The data set is described as follows: Antiviral activity in HeLa-ACE2 cells, high content imaging with convalescent sera. In kind it is cell-based, USA-WA1/2020 SARS-CoV-2. To be noted: Severe acute respiratory syndrome coronavirus 2, HeLa-ACE2, 24 h.
For data set [5], the system named is SARS-CoV-2. The data set is described as follows: microbe, parasite or virus in culture. The data set is classed as cell-based, Washington SARS-CoV-2.

Structures are written as SMILES. Where “and” joins values, the source holds several entries; their conditions need not be identical. Identical values can stand only once. Like-named read-outs stand apart in the source and are kept apart here.

Sequence of hERG (Q12809 whole entry): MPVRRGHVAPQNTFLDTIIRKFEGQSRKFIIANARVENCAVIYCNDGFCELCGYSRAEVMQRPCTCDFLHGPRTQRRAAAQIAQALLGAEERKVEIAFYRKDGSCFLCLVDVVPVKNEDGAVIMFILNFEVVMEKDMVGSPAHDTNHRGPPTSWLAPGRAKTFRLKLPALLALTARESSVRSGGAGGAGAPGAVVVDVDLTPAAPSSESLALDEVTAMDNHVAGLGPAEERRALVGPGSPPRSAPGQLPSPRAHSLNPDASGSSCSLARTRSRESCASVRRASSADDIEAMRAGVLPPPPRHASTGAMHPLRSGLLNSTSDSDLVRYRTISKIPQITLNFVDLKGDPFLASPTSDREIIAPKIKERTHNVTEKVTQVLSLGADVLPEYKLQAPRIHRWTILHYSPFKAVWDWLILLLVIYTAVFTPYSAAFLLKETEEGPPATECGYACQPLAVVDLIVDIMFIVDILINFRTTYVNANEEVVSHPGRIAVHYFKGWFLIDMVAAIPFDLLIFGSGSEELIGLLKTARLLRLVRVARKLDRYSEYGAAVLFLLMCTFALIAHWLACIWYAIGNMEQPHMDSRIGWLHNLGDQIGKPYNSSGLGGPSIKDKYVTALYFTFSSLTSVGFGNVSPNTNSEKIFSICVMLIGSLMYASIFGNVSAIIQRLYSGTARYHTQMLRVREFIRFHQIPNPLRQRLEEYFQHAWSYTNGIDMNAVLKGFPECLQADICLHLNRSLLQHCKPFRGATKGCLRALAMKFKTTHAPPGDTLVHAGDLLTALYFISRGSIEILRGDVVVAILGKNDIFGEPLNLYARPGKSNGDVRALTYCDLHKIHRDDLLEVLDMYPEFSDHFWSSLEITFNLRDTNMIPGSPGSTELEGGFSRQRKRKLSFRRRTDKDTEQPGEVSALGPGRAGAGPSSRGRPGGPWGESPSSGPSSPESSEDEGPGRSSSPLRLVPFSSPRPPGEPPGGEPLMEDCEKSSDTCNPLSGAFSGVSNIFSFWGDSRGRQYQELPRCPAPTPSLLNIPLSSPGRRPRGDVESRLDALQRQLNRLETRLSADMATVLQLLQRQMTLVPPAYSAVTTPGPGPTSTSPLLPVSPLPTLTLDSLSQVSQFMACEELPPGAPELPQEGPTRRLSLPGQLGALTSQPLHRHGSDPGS

As usually defined, the solubility is the concentration that dissolves in the medium under given conditions. A high value points to much dissolved substance. As a reminder, the EC50 is the concentration at which the effect is half-maximal. On to `COc1cccc2[nH]c(C(=O)N[C@@H](CC(C)C)C(=O)N[C@@H](C[C@@H]3CCNC3=O)C(=O)COP(=O)(O)O)cc12` [Example 49], for which the solubility in “physchem” is above 200 mg/mL. The “hERG current amplitude: no inhibition at up to” value on hERG stood at 300 µM. For the same compound, the EC50 came out at 0.074 µM with HCoV-229E (Human coronavirus 229E, MRC5, read-out: EC50 μM GeoMean (95% CI)) and 0.058 µM in the data set on HCoV-229E (read-out: EC50 μM GeoMean (95% CI)). Besides, the “Total Impurities (%)” value runs as follows: (pH 1.9) 3.2% and 5.4% and 8.9%; (pH 2.9) 2.0% and 2.5% and 3.0%; (pH 4.2) 3.0% and 3.8% and 6.5%. Further, the “Increase in Total Impurities (%) - 4 days” value in data set [1] (pH 3) is 0.8% and 1.2%; in data set [1] (pH 4) it was 1.4% and 1.5% and 1.6%; in [1] (pH 5), 4.3% and 4.1% and 3.6%. This compound also had a CC50 in “in vitro” above 100000 nM. Further, the “projected unbound human Cmax” value in [2] came out at 170 nM.
By EC90 is commonly meant the point of the concentration-response curve where the effect stands at 90%. Low values mean greater potency, high ones weaker potency. As to `CCC(CC)COC(=O)[C@H](C)N[P@](=O)(OC[C@H]1O[C@@](C#N)(c2ccc3c(N)ncnn23)[C@H](O)[C@@H]1O)Oc1ccccc1` [remdesivir, reference compound], the EC50 is 442 nM in the data set with SARS-CoV-2 [3] (24 hours post infection), 238 nM in the data set on SARS-CoV-2 [3] (48 hours post infection) and 73.9 nM in the data set on SARS-CoV-2 [4]. Besides, the EC90 in the data set with SARS-CoV-2 [3] (24 hours post infection) is 1190 nM; with SARS-CoV-2 [3] (48 hours post infection), 592 nM; with SARS-CoV-2 [4] it was 168 nM. The “fold reduction in virion replication” value with SARS-CoV-2 [5] (0.5 μM) was determined as 93.1 fold; with SARS-CoV-2 [5] (10 μM), 2590 fold.

The record behind these values is US11926642B2, “Compounds and methods for the treatment of COVID-19” (priority 2020, dated 2024).
